From the supplement of paper PMC10307832

Columns and labels:
Assay in all cases: relative viability (nuclei count vs DMSO), 5 days (fraction); higher = more cells survive
AZ628 + Dasatinib = compound: CC1=C(C=C(C=C1)NC(=O)C2=CC(=CC=C2)C(C)(C)C#N)NC3=CC4=C(C=C3)N=CN(C4=O)C [AZ628] + Cc1nc(Nc2ncc(C(=O)Nc3c(C)cccc3Cl)s2)cc(N2CCN(CCO)CC2)n1 [Dasatinib] (partner 0.075 µM)
Summary of the method: (§1)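 Relative viability divides the nuclei count in treated wells by that in vehicle wells. Lung cancer cell lines were seeded in 1536-well plates, dosed by pin tool the next day, and fixed and stained after 5 days in one step with final 0.05% Triton X-100, 1% formaldehyde and 1 ug/ml Hoechst. Dosing was a single drug or a fixed anchor-drug dose plus five library-drug doses (not always all listed) in √10 steps, and values are medians of duplicate plates imaged at 4×.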

AZ628 + AZD7762 = compound: CC1=C(C=C(C=C1)NC(=O)C2=CC(=CC=C2)C(C)(C)C#N)NC3=CC4=C(C=C3)N=CN(C4=O)C [AZ628] + NC(=O)Nc1cc(-c2cccc(F)c2)sc1C(=O)N[C@H]1CCCNC1 [AZD7762] (partner 0.2 µM)
Summary of the method: as §1

QS11 + Dasatinib = compound: C1CC2=C(C1)C=C(C=C2)OC3=NC(=C4C(=N3)N(C=N4)CC5=CC=C(C=C5)C6=CC=CC=C6)N[C@@H](CC7=CC=CC=C7)CO [QS11] + Cc1nc(Nc2ncc(C(=O)Nc3c(C)cccc3Cl)s2)cc(N2CCN(CCO)CC2)n1 [Dasatinib] (partner 0.075 µM)
Summary of the method: as §1

AZ628 + Pictilisib = compound: CC1=C(C=C(C=C1)NC(=O)C2=CC(=CC=C2)C(C)(C)C#N)NC3=CC4=C(C=C3)N=CN(C4=O)C [AZ628] + CS(=O)(=O)N1CCN(Cc2cc3nc(-c4cccc5[nH]ncc45)nc(N4CCOCC4)c3s2)CC1 [Pictilisib] (partner 1 µM)
Summary of the method: as §1

Row | Cell Line | relative viability (AZ628 + Dasatinib; first compound 0.08 µM) | relative viability (AZ628 + Dasatinib; first compound 0.253 µM) | relative viability (AZ628 + Dasatinib; first compound 0.8 µM) | relative viability (AZ628 + Dasatinib; first compound 2.53 µM) | relative viability (AZ628 + Dasatinib; first compound 8 µM) | relative viability (AZ628 + AZD7762; first compound 0.08 µM) | relative viability (AZ628 + AZD7762; first compound 0.253 µM) | relative viability (AZ628 + AZD7762; first compound 0.8 µM) | relative viability (AZ628 + AZD7762; first compound 2.53 µM) | relative viability (AZ628 + AZD7762; first compound 8 µM) | relative viability (QS11 + Dasatinib; first compound 0.08 µM) | relative viability (QS11 + Dasatinib; first compound 0.253 µM) | relative viability (QS11 + Dasatinib; first compound 0.8 µM) | relative viability (QS11 + Dasatinib; first compound 2.53 µM) | relative viability (QS11 + Dasatinib; first compound 8 µM) | relative viability (AZ628 + Pictilisib; first compound 0.08 µM) | relative viability (AZ628 + Pictilisib; first compound 0.253 µM) | relative viability (AZ628 + Pictilisib; first compound 0.8 µM) | relative viability (AZ628 + Pictilisib; first compound 2.53 µM) | relative viability (AZ628 + Pictilisib; first compound 8 µM)
1 | NCI-H650 | 0.529 | 0.487 | 0.463 | 0.558 | 0.434 | 1.14 | 1.24 | 1.37 | 1.14 | 0.691 | 0.424 | 0.428 | 0.497 | 0.4 | 0.352 | 1.07 | 1 | 1.06 | 1.12 | 0.732
2 | SW 900 | 1.1 | 0.466 | 0.59 | 0.528 | 0.547 | 0.552 | 0.552 | 0.494 | 0.634 | 0.378 | 0.629 | 0.529 | 0.428 | 0.417 | 0.521 |  |  |  |  | 
3 | EBC-1 |  |  |  |  |  |  |  |  |  |  |  |  |  |  |  | 0.341 | 0.299 | 0.271 | 0.233 | 0.201
4 | HCC-44 |  |  |  |  |  | 1.01 | 0.945 | 1.08 | 1.04 | 1.24 |  |  |  |  |  | 0.547 | 0.512 | 0.427 | 0.354 | 0.286
5 | NCI-H661 | 0.87 | 0.644 | 0.629 | 0.666 | 0.659 |  |  |  |  |  | 0.794 | 0.804 | 0.891 | 0.798 | 0.711 | 0.401 | 0.312 | 0.302 | 0.353 | 0.331
6 | SK-LU-1 |  | 0.179 | 0.231 | 0.208 | 0.22 |  |  |  |  |  | 0.175 | 0.158 | 0.172 | 0.167 | 0.169 | 0.429 | 0.375 | 0.534 | 0.467 | 0.373
7 | NCI-H1299 |  |  |  |  |  |  |  |  |  |  |  |  |  |  |  | 0.643 | 0.464 | 0.306 | 0.283 | 0.167
8 | A549 |  |  |  |  |  |  |  |  |  |  |  |  |  |  |  | 0.473 | 0.378 | 0.311 | 0.406 | 0.138
9 | IA-LM |  |  |  |  |  |  |  |  |  |  |  |  |  |  |  | 0.352 | 0.231 | 0.155 | 0.145 | 0.115
10 | Calu-6 |  |  |  |  |  |  |  |  |  |  |  |  |  |  |  | 0.896 | 0.64 | 0.409 | 0.553 | 0.144
11 | NCI-H1648 |  |  |  |  |  | 0.871 | 0.579 | 0.524 | 0.494 | 0.587 |  |  |  |  |  |  |  |  |  | 
12 | NCI-H1650 | 0.319 | 0.366 | 0.318 | 0.296 | 0.249 |  |  |  |  |  | 0.288 | 0.27 | 0.329 | 0.308 | 0.284 | 0.741 | 0.604 | 0.614 | 0.5 | 0.342
13 | NCI-H1623 | 0.554 | 0.447 | 0.301 | 0.493 | 0.374 |  |  |  |  |  | 0.502 | 0.567 | 0.66 | 0.544 | 0.641 |  |  |  |  | 
14 | NCI-H1703 |  |  |  |  |  | 0.118 | 0.124 | 0.134 | 0.139 | 0.0724 |  |  |  |  |  | 0.231 | 0.235 | 0.235 | 0.197 | 0.251
15 | COR-L23 | 0.499 | 0.465 | 0.493 | 0.447 | 0.347 |  |  |  |  |  | 0.505 | 0.59 | 0.552 | 0.358 | 0.355 | 0.767 | 0.73 | 0.651 | 0.653 | 0.346
16 | NCI-H1563 | 0.477 | 0.436 | 0.469 | 0.487 | 0.475 |  |  |  |  |  | 0.448 | 0.417 | 0.44 | 0.409 | 0.426 | 0.613 | 0.667 | 0.657 | 0.658 | 0.616
17 | SW 1573 | 0.535 | 0.422 | 0.381 | 0.434 | 0.302 |  |  |  |  |  | 0.537 | 0.635 | 0.545 | 0.393 | 0.329 | 0.44 | 0.34 | 0.367 | 0.335 | 0.27
18 | COR-L 105 | 0.358 | 0.419 | 0.285 | 0.312 | 0.244 |  |  |  |  |  | 0.281 | 0.267 | 0.334 | 0.423 | 0.331 | 0.466 | 0.418 | 0.384 | 0.353 | 0.334
19 | NCI-H2009 | 0.202 | 0.258 | 0.182 | 0.173 | 0.184 |  |  |  |  |  | 0.277 | 0.295 | 0.261 | 0.209 | 0.229 | 0.512 | 0.311 | 0.291 | 0.277 | 0.226
20 | NCI-H2023 | 0.617 | 0.647 | 0.444 | 0.436 | 0.396 |  |  |  |  |  | 0.634 | 0.475 | 0.555 | 0.572 | 0.618 | 0.218 | 0.23 | 0.236 | 0.196 | 0.202
21 | NCI-H520 | 0.254 | 0.189 | 0.325 | 0.18 | 0.215 |  |  |  |  |  | 0.186 | 0.254 | 0.191 | 0.208 | 0.167 | 0.312 | 0.313 | 0.273 | 0.212 | 0.204
22 | NCI-H2228 | 0.479 | 0.531 | 0.47 | 0.432 | 0.396 |  |  |  |  |  | 0.415 | 0.521 | 0.55 | 0.725 | 0.677 | 0.397 | 0.32 | 0.368 | 0.329 | 0.264
